According to ChEMBL document CHEMBL1201862, “PubChem BioAssay data set” (2004):
Activity calls are given as the source filed them. For most assays here, no stated cut-off is given here; in the data, actives have a measured AC50 and inactives only a lower limit.

What was measured:
Assay type in all cases: functional
[1] = target: T1, Replicative DNA helicase DnaB (Mycobacterium tuberculosis, UniProt P9WMR3); assay: DnaB intein splicing inhibitors, dose response, biochemical, cell-free fluorescence (AID 449749)
T1 sequence (P9WMR3 whole entry): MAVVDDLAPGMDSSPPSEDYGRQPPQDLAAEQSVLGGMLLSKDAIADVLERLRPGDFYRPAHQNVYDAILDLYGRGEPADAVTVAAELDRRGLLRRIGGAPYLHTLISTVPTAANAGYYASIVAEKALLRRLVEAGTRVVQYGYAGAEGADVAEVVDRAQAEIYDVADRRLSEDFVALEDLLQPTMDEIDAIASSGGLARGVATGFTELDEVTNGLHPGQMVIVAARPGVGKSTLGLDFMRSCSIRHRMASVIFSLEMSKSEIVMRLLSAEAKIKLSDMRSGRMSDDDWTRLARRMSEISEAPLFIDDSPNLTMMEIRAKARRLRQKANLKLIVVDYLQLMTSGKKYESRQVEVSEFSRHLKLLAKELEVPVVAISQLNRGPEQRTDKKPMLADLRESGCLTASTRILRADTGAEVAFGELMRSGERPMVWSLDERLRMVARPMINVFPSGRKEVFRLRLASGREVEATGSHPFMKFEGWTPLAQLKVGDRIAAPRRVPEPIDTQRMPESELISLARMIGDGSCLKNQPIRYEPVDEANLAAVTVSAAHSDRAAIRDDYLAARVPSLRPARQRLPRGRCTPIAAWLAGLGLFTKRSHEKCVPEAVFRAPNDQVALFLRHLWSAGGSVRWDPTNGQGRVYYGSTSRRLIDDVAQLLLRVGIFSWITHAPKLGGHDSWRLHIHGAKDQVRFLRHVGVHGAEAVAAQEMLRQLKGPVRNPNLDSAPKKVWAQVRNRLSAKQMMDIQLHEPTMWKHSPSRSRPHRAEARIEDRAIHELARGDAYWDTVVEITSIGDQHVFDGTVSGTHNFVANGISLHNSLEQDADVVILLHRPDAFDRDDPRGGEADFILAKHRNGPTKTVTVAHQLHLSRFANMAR

[2] = reduction of Shn3 3'UTR-driven luciferase in osteoblasts – cell-based, Clone20 osteoblasts, firefly luciferase, cherry-picked, dose response (AID 624132);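 further: firefly luciferase luminescence from reporter carrying the Shn3 3'UTR in osteoblasts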
[3] = loss of viability in HepG2 cells – cell-based, CellTiter-Glo, cherry-picked, cytotoxicity control for Shn3 inhibitor project, dose response (AID 624134)
[4] = non-specific 3'UTR reporter inhibition in Clone20-Shn3RL – cell-based, Renilla luciferase, cherry-picked, counter-screen for Shn3 inhibitor project, dose response (AID 624133)
[5] = target: T2, Apoptotic protease-activating factor 1 (Homo sapiens, UniProt O14727)
T2 sequence (O14727 whole entry): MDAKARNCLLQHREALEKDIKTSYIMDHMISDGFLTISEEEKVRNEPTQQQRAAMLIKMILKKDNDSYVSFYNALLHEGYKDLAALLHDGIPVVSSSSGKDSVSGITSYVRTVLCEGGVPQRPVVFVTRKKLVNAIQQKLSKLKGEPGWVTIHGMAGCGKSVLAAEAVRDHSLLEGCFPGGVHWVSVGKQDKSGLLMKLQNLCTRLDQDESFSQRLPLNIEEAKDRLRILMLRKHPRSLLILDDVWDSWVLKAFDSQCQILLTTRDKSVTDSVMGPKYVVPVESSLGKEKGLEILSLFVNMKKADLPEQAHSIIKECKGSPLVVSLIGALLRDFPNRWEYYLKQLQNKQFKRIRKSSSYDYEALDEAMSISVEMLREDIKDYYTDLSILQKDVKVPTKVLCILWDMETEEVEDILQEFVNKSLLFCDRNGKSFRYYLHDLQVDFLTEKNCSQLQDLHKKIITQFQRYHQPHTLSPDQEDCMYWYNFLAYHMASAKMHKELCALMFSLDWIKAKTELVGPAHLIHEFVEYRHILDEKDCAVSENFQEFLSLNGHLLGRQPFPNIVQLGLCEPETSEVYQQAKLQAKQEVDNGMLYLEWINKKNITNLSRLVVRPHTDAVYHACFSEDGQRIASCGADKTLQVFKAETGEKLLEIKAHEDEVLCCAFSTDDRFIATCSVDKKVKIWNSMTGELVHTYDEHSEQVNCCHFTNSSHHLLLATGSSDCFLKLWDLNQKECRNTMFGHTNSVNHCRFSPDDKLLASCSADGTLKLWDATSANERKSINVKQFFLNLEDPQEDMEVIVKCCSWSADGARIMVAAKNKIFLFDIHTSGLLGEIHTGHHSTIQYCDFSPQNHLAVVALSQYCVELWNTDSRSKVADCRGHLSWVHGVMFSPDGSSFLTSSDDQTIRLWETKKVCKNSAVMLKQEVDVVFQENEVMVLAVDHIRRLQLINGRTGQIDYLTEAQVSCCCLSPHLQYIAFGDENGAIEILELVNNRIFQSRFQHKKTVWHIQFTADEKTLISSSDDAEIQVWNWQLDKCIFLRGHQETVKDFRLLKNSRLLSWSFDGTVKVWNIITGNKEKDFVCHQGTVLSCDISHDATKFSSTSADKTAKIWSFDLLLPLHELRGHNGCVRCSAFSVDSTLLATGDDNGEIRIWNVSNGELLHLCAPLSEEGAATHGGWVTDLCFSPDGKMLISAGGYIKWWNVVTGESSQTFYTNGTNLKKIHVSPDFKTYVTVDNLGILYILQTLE

Row | Compound | AC50 [1] | AC50 [2] | AC50 [3] | AC50 [4] | IC50 [5]
1 | CCOC(=O)c1c(C)[nH]c2c1-c1ccccc1C(=O)C2=O | 1.34 µM (active) | 0.496 µM (active) | 3.96 µM (active) | 1 µM (active) | 
2 | CCOC(=O)C1=C(c2ccccc2)N=C(N)NC1c1ccc(OCc2ccc(Cl)cc2)c(OC)c1 (configuration not stated) | 8.68 µM (active) |  |  |  | 14.6 µM (active)
3 | COc1ccc2c(c1)CCC(/C=N/c1ccc3c(c1)OCO3)=C2O |  |  |  |  | 17.4 µM (active)
4 | O=C(c1ccccc1)c1coc2c1C(=O)c1ccccc1C2=O |  |  |  |  | 15 µM (active)
5 | CC(=O)NC(c1ccc2ccccc2c1)c1ccc2cccnc2c1O (configuration not stated) |  | 0.422 µM (active) | 0.867 µM (active) | 0.51 µM (active) | 
6 | CCOC(=O)c1c(C)oc2c1c(/C=N/CCC(=O)O)c(O)c1ccccc12 | > 380 µM (inactive) |  |  |  | 12.3 µM (active)
7 | O=[N+]([O-])c1c(NCCO)cc(Sc2nc3ccccc3s2)c2nonc12 | 1.05 µM (active) | 1.64 µM (active) | 32.1 µM (active) | 10.7 µM (active) | 
